Results: patent US9469584B2, “Method for producing butanol using extractive fermentation” (Butamax Advanced Biofuels LLC, priority 2013, dated 2016)
Where a name gives a salt, the structure may show the parent alone. Read-outs that look alike come from different tables or passages of the source.

How the values were obtained:
[1] = system: ethanologen (Ethanol Red)
[2] = Density of the pure solvent; format: physicochemical
Method: Wt % of isobutanol in each layer was reported. The density of the pure solvent was also reported. […] Wt. iBuOH (mg) was calculated by wt % i-BuOH×0.5×density of pure solvent. For the aqueous solutions the density of both the pure water and salt solutions were assumed to be 1.0 g/ml. Kd was calculated both from concentration of i-BuOH in the organic/concentration of i-BuOH in the aqueous layer. It was calculated both from the w/w data and w/v data. The sum of the amounts of isobutanol found in both layers was calculated as a check on the data.

Compound | density ([2]; pure solvent) [g/mL] | further results
CCCCC(CC)COC(=O)CCCCC(=O)OCC(CC)CCCC (stereo not drawn) [bis(2-ethylhexyl)adipate] | 0.925 | Glucose (g/L) 5.50 hrs Run 1 ([1]; Saccharomyces cerevisiae): 0.0/0.0 g/L; Glucose (g/L) 5.50 hrs Run 2 ([1]; Saccharomyces cerevisiae): 0.0/0.0 g/L; Glucose (g/L) […] Run 1 ([1]; Saccharomyces cerevisiae): 0.0/0.0 g/L; Glucose (g/L) […] Run 2 ([1]; Saccharomyces cerevisiae): 0.0/0.0 g/L
CCCCCCC(CO)CCCC (stereo not drawn) [2-butyl-1-octanol] | 0.833 | –
CCCCCl [chlorobutane] | – | density [2]: 0.886 g/mL
CC(C)CCOCCC(C)C [i-Amyl Ether] | 0.78 | –
CCCCC(CC)COP(=O)(O)OCC(CC)CCCC (stereo not drawn) [Bis(2-ethylhexyl) phosphate] | 0.965 | Glucose (g/L) 5.00 hrs Run 1 [1]: 20.3/20.6 g/L; Glucose (g/L) 5.00 hrs Run 2 [1]: 20.3/20.6 g/L; Glucose (g/L) […] Run 1 [1]: 20.0/20.2 g/L; Glucose (g/L) […] Run 2 [1]: 20.0/20.2 g/L
CC1COC(=O)O1 (stereo not drawn) [propylene carbonate] | 1.2 | –
CCCCCCCCOC(=O)c1ccccc1C(=O)OCCCCCCCC [Dioctyl phthlate] | – | density [2]: 0.985 g/mL
CCCCCCCCC(CO)CCCCCC (stereo not drawn) [2-Hexyl-1-decanol (Isofol 16), 2-Hexyl-1-decanol] | 0.836 | –
Xylene | – | density [2]: 0.879 g/mL
CCCCCCOC(=O)c1ccccc1O [hexyl salicylate] | 1.04 | –
nonyl phenol | – | Glucose (g/L) 5.00 hrs Run 1 [1]: 20.3/20.3 g/L; Glucose (g/L) 5.00 hrs Run 2 [1]: 20.3/20.3 g/L; Glucose (g/L) […] Run 1 [1]: 20.6/20.0 g/L; Glucose (g/L) […] Run 2 [1]: 20.6/20.0 g/L; density [2]: 0.937 g/mL
CCCCCCCCOC(=O)c1ccc(C(=O)OCCCCCCCC)cc1 [dioctyl terephthalate] | 0.986 | –
CC(C)CCCC(C)CCO (stereo not drawn) [3,7-dimethyl-1-octanol] | 0.828 | –
CC(C)=CCCC(C)=CCCC(C)=CCO [Farnesol] | 0.89 | –

Now from value to compound, other results behind:

density ([2]; pure solvent) [g/mL] | Compound | further results
0.849 | CCCCCCCC/C=C\CCCCCCCCO [oleyl alcohol, reference compound] | –
0.833 | CCCCC(CC)CO (stereo not drawn) [2-Ethyl-1-hexanol] | –
0.824 | CC(CCO)CC(C)(C)C (stereo not drawn) [3,5,5-trimethyl-1-hexanol] | –
0.793 | CCCCCCOCCCCCC [Hexyl Ether] | –
0.944 | CCCCC(CC)COC(=O)/C=C\C(=O)OCC(CC)CCCC (stereo not drawn) [Bis(2-ethylhexyl) maleate] | –
0.855 | CCCCCCCCCCCC(=O)OCCCC [butyl dodecanoate] | –
0.914 | CCCCC(CC)COC(=O)CCCCCCCCC(=O)OCC(CC)CCCC (stereo not drawn) [bis(2-ethylhexyl)sebacate] | –
